This note sets out measurements from patent US20100291168A1, “ANTIMICROBIAL FORMULATIONS COMPRISING A COMBINATION OF A PYRIDINE THIOL AND A BIS-QUINOLINIUM SALT” (priority 2007, published 2010).

Assay [1] concerns P. acnes NCTC 737. Kind of assay: Minimum Bactericidal Concentration (MBC) assay. The class given is cell-based, Propionibacterium acnes. The method, then: (§1) The propionibacteria were cultured and maintained on Wilkins-Chalgren Anaerobe Medium (agar and broth) at pH 6.0; all cultures were incubated anaerobically at 37° C. for 72 hours.
(b) Minimum Bactericidal Concentration (MBC) Assay
This assay, normally carried out after an MIC assay, determines the minimum concentration of a compound that is lethal to the micro-organism being tested.
These samples were then individually sub-cultured on antibiotic-free agar medium, under the incubation conditions described above. Following incubation they were examined visually for bacterial growth.
The ratio of MIC to MBC should ideally be as close to 1 as possible.
(§2) The following experiments all used P. acnes NCTC 737 as the test organism.
(§3) MIC, MBC and DDA assays, as described above, were carried out using the test compounds (a) dequalinium chloride (DC), dissolved in ethanol and (b) zinc pyrithione (ZP), dissolved in DMSO. Both compounds were sourced from Sigma-Aldrich, UK.
(§4) The general method of Example 1 was repeated using another bis-quinolinium salt, dequalinium iodide (DI), which was also obtained from Sigma-Aldrich, UK. This compound was tested against P. acnes NCTC 737, both alone and in combination with ZP.

The test system of assay [2] is P. acnes NCTC 737. Briefly: Disc diffusion / synergy disc diffusion assay ((S)DDA). The class given is cell-based, Propionibacterium acnes. As to conditions: Example 3, zone of inhibition diameter, 50 μg DI or 200 μg ZP per disc, both in DMSO. How it is done: as §1
(c) Disc Diffusion Assay (DDA)
This is an internationally recognised standard method for qualitatively assessing the antimicrobial activity of a compound.
A sterile paper disc was impregnated with a sample of the test compound in a suitable solvent and 30 minutes allowed for the solvents to evaporate (where possible). The disc was then placed on an agar plate onto which the test micro-organism had been inoculated. The plate was then incubated under the conditions described above, following which it was examined visually for signs of microbial growth. […] The diameter of this zone of “inhibition” was measured using a ProtoCOL™ automated zone sizer (Synbiosis, Cambridge, UK).
(d) Synergy Disc Diffusion Assay (SDDA)
This is a variation on the DDA method, in which two compounds are tested together for their combined antimicrobial activity.
Two test compounds A and B were placed on a single paper disc and the above described DDA procedure repeated.
Mixtures of the two test compounds were then subjected to SDDA assays as described above.
For the (S)DDA experiments, 50 μg of the DC was loaded onto each disc, and 200 μg of the ZP. All the (S)DDA experiments were conducted in triplicate.
For the (S)DDA experiments, 50 μg of the DI was loaded onto each disc, and 200 μg of the ZP. The DI and ZP were both dissolved in DMSO.
All the (S)DDA experiments were conducted in triplicate.
In general terms: A growth-free zone around the sample is the usual read-out of agar diffusion tests.

The subject of assay [3] is Cor. mucifaciens ATCC 700355. Briefly: (S)DDA. It is filed as cell-based, Corynebacterium mucifaciens. As to conditions: Table 7, 200 μg DI or 200 μg ZP per disc. How it is done: The activity of a DC/ZP combination was determined, using (S)DDAs, against two further test micro-organisms, namely C. difficile ATCC 7000057 and Cor. mucifaciens ATCC 700355. A DI/ZP combination was also tested against Cor. mucifaciens.
In these tests, 50 μg (for C. difficile) or 200 μg (for Cor. mucifaciens) of the DC was loaded onto each disc. The DI and the ZP were both loaded at 200 μg per disc. All the (S)DDA experiments were conducted in triplicate.

For assay [4], the system named is P. acnes NCTC 737. Briefly: Minimum Inhibitory Concentration (MIC) assay. It is filed as cell-based, Propionibacterium acnes. How it is done:
as §1
(a) Minimum Inhibitory Concentration (MIC) Assay
This is a standard international method for quantitatively assessing the antimicrobial activity of a compound in a liquid medium. The method used a sterile 96-well microtitre plate, capable of holding about 200 μl of liquid per well. The wells contained liquid culture medium and ranges of decreasing concentrations of the relevant test compound in doubling dilutions (eg, 1000, 500, 250, 125 . . . μg/ml, etc. down to 0.49 μg/ml). The culture medium was as described above.
The wells were inoculated with a liquid suspension of freshly grown micro-organism and incubated under the conditions described above. After incubation, the microtitre plate was examined visually (with the aid of a light box) for cloudiness in each well, which would indicate microbial growth. The MIC value was recorded as the lowest concentration of test compound required to inhibit microbial growth, ie, the lowest concentration for which the liquid in the well remained clear.
The assays were conducted in duplicate and included both negative (culture medium with no micro-organisms) and positive (culture medium plus diluting solvent plus micro-organism) controls.
as §2, §3, §4

On to `Cc1cc(N)c2ccccc2[n+]1CCCCCCCCCC[n+]1c(C)cc(N)c2ccccc21.[I-].[I-]` [DI, dequalinium iodide], for which the MIC/MBC ratio in the assay on P. acnes NCTC 737 [1] was determined as 0.03. In addition, the MBC with P. acnes NCTC 737 [1] (sub-culture after MIC assay) stood at 125 µg/mL. In addition, the DDA in the assay with P. acnes NCTC 737 [2] was found to be 21.92 mm; in assay [3] it was 22.93 mm. The “activity of compound alone (MIC, MBC, DDA data)” value in the assay on P. acnes NCTC 737 [4] is “active”. In addition, the MIC with P. acnes NCTC 737 [4] (anaerobic, 37° C., 72 hours) was 3.9 µg/mL.

Broadly, the MBC is the smallest concentration meeting the test's criterion for killing. In general, MIC refers to the lowest concentration found to suppress growth.
